Assays:
Type in all cases: in vivo
Spodoptera littoralis = Spodoptera littoralis (Egyptian Cotton Leafworm) cotton leaf disc spray test; details: foliar, 72 h, 200 ppm spray on cotton leaf discs, L1 larvae, mortality, feeding behavior, growth regulation 3 DAT
Heliothis virescens = Heliothis virescens (Tobacco Budworm) egg test on artificial diet; details: 96 h, 200 ppm (concentration in well 18 ppm), eggs 0-24 h old on artificial diet, 4 days, egg mortality, larval mortality, growth regulation
Plutella xylostella = Plutella xylostella (Diamond Back Moth) artificial diet MTP test; details: 144 h, 200 ppm (concentration in well 18 ppm), L2 larvae, 6 days, larval mortality, growth regulation
Diabrotica balteata = Diabrotica balteata (Corn Root Worm) artificial diet MTP test; details: 120 h, 200 ppm (concentration in well 18 ppm), L2 larvae, 5 days, larval mortality, growth regulation

Measured: pest or weed control at 200 ppm

CCc1cc(C(F)(C(F)(F)F)C(F)(F)C(F)(F)F)cc(C)c1NC(=O)c1cccc(NC(=O)c2ccc(F)cc2)c1OC (stereo not drawn) [A1, N-[2-ethyl-4-(1,2,2,3,3,3-hexafluoro-1-trifluoromethylpropyl)-6-methylphenyl]-3-(4-fluorobenzoylamino)-2-methoxybenzamide]
≥ 80%: all assays above

COc1c(NC(=O)c2cccc(F)c2F)cccc1C(=O)Nc1c(Cl)cc(C(F)(C(F)(F)F)C(F)(F)C(F)(F)F)cc1Br (stereo not drawn) [B22]
≥ 80%: all assays above

COc1c(NC(=O)c2ccc(-n3cccc3)cc2)cccc1C(=O)Nc1c(Cl)cc(C(F)(C(F)(F)F)C(F)(F)C(F)(F)F)cc1Br (stereo not drawn) [B30]
≥ 80%: Spodoptera littoralis | Heliothis virescens | Diabrotica balteata

COc1c(NC(=O)c2cnccn2)cccc1C(=O)Nc1c(Cl)cc(C(F)(C(F)(F)F)C(F)(F)C(F)(F)F)cc1Br (stereo not drawn) [B56]
≥ 80%: all assays above

COc1c(NC(=O)c2cc([N+](=O)[O-])ccc2Cl)cccc1C(=O)Nc1c(Cl)cc(C(F)(C(F)(F)F)C(F)(F)C(F)(F)F)cc1Br (stereo not drawn) [B62]
≥ 80%: all assays above

COc1c(NC(=O)c2cc(C)ccc2Cl)cccc1C(=O)Nc1c(Cl)cc(C(F)(C(F)(F)F)C(F)(F)C(F)(F)F)cc1Br (stereo not drawn) [B72]
≥ 80%: all assays above

COc1c(NC(=O)c2cc(Br)ccc2Cl)cccc1C(=O)Nc1c(Cl)cc(C(F)(C(F)(F)F)C(F)(F)C(F)(F)F)cc1Br (stereo not drawn) [B83]
≥ 80%: all assays above

COc1c(NC(=O)c2ccc(C)c(Br)c2)cccc1C(=O)Nc1c(Cl)cc(C(F)(C(F)(F)F)C(F)(F)C(F)(F)F)cc1Br (stereo not drawn) [B84]
≥ 80%: all assays above

COc1c(NC(=O)c2cccc([N+](=O)[O-])c2Br)cccc1C(=O)Nc1c(Cl)cc(C(F)(C(F)(F)F)C(F)(F)C(F)(F)F)cc1Br (stereo not drawn) [B85]
≥ 80%: all assays above

COc1c(NC(=O)c2cc([N+](=O)[O-])cc([N+](=O)[O-])c2C)cccc1C(=O)Nc1c(Cl)cc(C(F)(C(F)(F)F)C(F)(F)C(F)(F)F)cc1Br (stereo not drawn) [B86]
≥ 80%: all assays above

COc1c(NC(=O)c2cc(C)n(C)n2)cccc1C(=O)Nc1c(Cl)cc(C(F)(C(F)(F)F)C(F)(F)C(F)(F)F)cc1Br (stereo not drawn) [B100]
≥ 80%: all assays above

COc1c(NC(=O)c2ccc(SC)cc2[N+](=O)[O-])cccc1C(=O)Nc1c(Cl)cc(C(F)(C(F)(F)F)C(F)(F)C(F)(F)F)cc1Br (stereo not drawn) [B116]
≥ 80%: all assays above

COc1c(NC(=O)c2cn(C)nc2C#N)cccc1C(=O)Nc1c(Cl)cc(C(F)(C(F)(F)F)C(F)(F)C(F)(F)F)cc1Br (stereo not drawn) [B117]
≥ 80%: all assays above

COc1c(NC(=O)c2ccc(C(F)(F)F)cc2SC)cccc1C(=O)Nc1c(Cl)cc(C(F)(C(F)(F)F)C(F)(F)C(F)(F)F)cc1Br (stereo not drawn) [B125]
≥ 80%: Heliothis virescens | Plutella xylostella | Diabrotica balteata

COc1c(NC(=O)c2ccc([N+](=O)[O-])c(O)c2)cccc1C(=O)Nc1c(Cl)cc(C(F)(C(F)(F)F)C(F)(F)C(F)(F)F)cc1Br (stereo not drawn) [B181]
≥ 80%: Diabrotica balteata

COc1c(NC(=O)c2ncc(Br)cn2)cccc1C(=O)Nc1c(Cl)cc(C(F)(C(F)(F)F)C(F)(F)C(F)(F)F)cc1Br (stereo not drawn) [B187]
≥ 80%: Spodoptera littoralis | Plutella xylostella | Diabrotica balteata

COc1c(NC(=O)c2cc(Cl)ccc2F)cccc1C(=O)Nc1c(Cl)cc(C(F)(C(F)(F)F)C(F)(F)C(F)(F)F)cc1Cl (stereo not drawn) [C10]
≥ 80%: Spodoptera littoralis | Heliothis virescens | Diabrotica balteata

COc1c(NC(=O)c2cc(Cl)ccc2F)cccc1C(=O)Nc1c(C)cc(C(F)(C(F)(F)F)C(F)(F)C(F)(F)F)cc1C (stereo not drawn) [F12]
≥ 80%: Spodoptera littoralis | Heliothis virescens | Diabrotica balteata

COCc1cc(C(F)(C(F)(F)F)C(F)(F)C(F)(F)F)cc(Cl)c1NC(=O)c1cccc(NC(=O)c2c(F)cc(F)cc2F)c1OC (stereo not drawn) [H2]
≥ 80%: Heliothis virescens | Plutella xylostella | Diabrotica balteata

COCc1cc(C(F)(C(F)(F)F)C(F)(F)C(F)(F)F)cc(Br)c1NC(=O)c1cccc(NC(=O)c2ccc(C#N)cc2C)c1OC (stereo not drawn) [I1]
≥ 80%: Heliothis virescens | Plutella xylostella | Diabrotica balteata

CCc1cc(C(F)(C(F)(F)F)C(F)(F)F)cc(C)c1NC(=O)c1cccc(NC(=O)c2ccc(C#N)cc2Cl)c1OC [J1]
≥ 80%: Plutella xylostella | Diabrotica balteata

CCc1cc(C(F)(C(F)(F)F)C(F)(F)F)cc(C)c1NC(=O)c1cccc(NC(=O)c2c(F)cc(F)cc2F)c1OC [J3]
≥ 80%: Heliothis virescens | Plutella xylostella | Diabrotica balteata

CCc1cc(C(F)(C(F)(F)F)C(F)(F)F)cc(C)c1NC(=O)c1cccc(NC(=O)c2ccc(C#N)cc2C)c1OC [J4]
≥ 80%: Heliothis virescens | Plutella xylostella | Diabrotica balteata

Source: US20120295907A1, “INSECTICIDAL COMPOUNDS” (SYNGENTA CROP PROTECTION, LLC, priority 2009, published 2012)
